Assay results: patent US5773449A, “Thioquinolone compounds which have useful pharmaceutical activity” (Zenyaku Kogyo Kabushiki Kaisha, priority 1994, dated 1998)
Converted amounts (≈) assume the structure as drawn.

How the values were obtained:
peptic ulcer = settings: H2-blocker / proton-pump inhibitor; cited from earlier work
K.pneumoniae PCI 602 = assay: Antibacterial Test 2: agar plate dilution method (aerobic MIC method), K.pneumoniae; type: cell-based; settings: Klebsiella pneumoniae, PCI602, sensitive-disk agar medium-N
Description: (§1) Then, tested were antibacterial activities of the typical compounds of the present invention against gram-positive and-negative bacteria other than Hp. MICs of the typical compounds of the present invention were determined in substantial accordance with agar plate dilution method (aerobic MIC method) based on Standard method of The Japan Society of Chemotherapy.
(§2) The respective test compound were dissolved in dimethyl sulfoxide (DMSO) and serially diluted twofold. These diluted solutions of the compounds were respectively added to sensitive-disk agar medium-N (manufactured by NISSUI SEIYAKU) to prepare agar plates for determination with concentration of 0.05-100 μg/ml.
(§3) The below-mentioned strains freezingly conserved at -135° C. were thawed in a warm bath (40° C.), cultured in a sensitivity-determining bouillon at 37° C. for 18-20 hours, and then diluted with the above-mentioned medium to prepare about 1.0×10^6CFU/ml of bacterial solution.
(§4) Inoculation was made by 5 μl by multi-inoculator (manufactured by SAKUMA SEISAKUSHO). Culturing was made under the same conditions as those of the pre-culturing and the MIC (unit: μg/ml) was determined by observing whether the bacteria grew or not.

E.faecalis RIMD 3336001 = assay: Antibacterial Test 2: agar plate dilution method (aerobic MIC method), E.faecalis; type: cell-based; settings: Enterococcus faecalis, RIMD3336001, sensitive-disk agar medium-N
Description: as §1, §2, §3, §4

S.aureus FDA 209P = assay: Antibacterial Test 2: agar plate dilution method (aerobic MIC method), S.aureus; type: cell-based; settings: Staphylococcus aureus, FDA209P, sensitive-disk agar medium-N
Description: as §1, §2, §3, §4

B.subtilis PCI 219 = assay: Antibacterial Test 2: agar plate dilution method (aerobic MIC method), B.subtilis; type: cell-based; settings: Bacillus subtilis, PCI219, sensitive-disk agar medium-N
Description: as §1, §2, §3, §4

[1] = test system: Helicobacter pylori standard strain ATCC 43526 (NCTC 11916); assay: Antibacterial test 1: agar plate dilution method (anaerobic MIC method) against Hp; type: cell-based; settings: 72 h; Helicobacter pylori ATCC 43526 (NCTC 11916); brucella agar + 7% horse blood, microaerobic, 37° C., 3 days
Description: Antibacterial test against Hp was performed in substantial accordance with agar plate dilution method (anaerobic MIC method) based on Standard method of The Japan Society of Chemotherapy to determine minimum inhibitory concentration (MIC) of the respective test compounds. The respective test compounds were sequentially dissolved in dimethyl sulfoxide (DMSO) and serially diluted twofold. […] Strain used for inoculation was Helicobacter pylori standard strain ATCC 43526 (NCTC 11916). For pre-culturing of bacteria to be inoculated, the above-mentioned strain freezingly conserved at -135° C. was thawed in a warm bath (40° C.), applied on a brucella agar medium containing 7% horse blood free from fibrin, and microaerobically cultured in a jar for anaerobic bacteria at 37° C. for 3 days. The solution of bacteria to be inoculated was prepared by collecting colonies grown on the culture medium and suspending the same in the brucella broth.

E.coli NIHJ JC-2 = assay: Antibacterial Test 2: agar plate dilution method (aerobic MIC method), E.coli; type: cell-based; settings: Escherichia coli, NIHJJC2, sensitive-disk agar medium-N
Description: as §1, §2, §3, §4

M.luteus ATCC 9341 = assay: Antibacterial Test 2: agar plate dilution method (aerobic MIC method), M.luteus; type: cell-based; settings: Micrococcus luteus, ATCC9341, sensitive-disk agar medium-N
Description: as §1, §2, §3, §4

P.aeruginosa IFO 3445 = assay: Antibacterial Test 2: agar plate dilution method (aerobic MIC method), P.aeruginosa; type: cell-based; settings: Pseudomonas aeruginosa, IFO3445, sensitive-disk agar medium-N
Description: as §1, §2, §3, §4

SMILES | MIC (K.pneumoniae PCI 602) | MIC (E.faecalis RIMD 3336001) | MIC (S.aureus FDA 209P) | MIC (B.subtilis PCI 219) | MIC [1] | MIC (E.coli NIHJ JC-2) | MIC (M.luteus ATCC 9341) | MIC (P.aeruginosa IFO 3445) | cure rate (peptic ulcer)
COc1ccc2[nH]c([S+]([O-])Cc3ncc(C)c(OC)c3C)nc2c1 (centres unmarked) [omeprazole] |  |  |  |  |  |  |  |  | 80-90%
Cc1ccc2c(=S)cc[nH]c2c1C [compound 55, 7,8-Dimethylquinoline-4(1H)-thione] | > 100 µg/mL | > 100 µg/mL | > 100 µg/mL | > 100 µg/mL | 0.39 µg/mL | > 100 µg/mL | > 100 µg/mL | > 100 µg/mL | 
Cc1c(OCC(F)(F)F)ccnc1C[S+]([O-])c1nc2ccccc2[nH]1 (centres unmarked) [lansoprazole, reference compound] | > 100 µg/mL | > 100 µg/mL | > 100 µg/mL | > 100 µg/mL | 12.5 µg/mL | > 100 µg/mL | > 100 µg/mL | > 100 µg/mL | 
O=C(O)CCCCCOc1ccc2c(=S)cc[nH]c2c1 [compound 51, 7-(5-Carboxy-n-pentyloxy)quinoline-4(1H)-thione] | > 100 µg/mL | 100 µg/mL (≈ 343 µM) | 100 µg/mL (≈ 343 µM) | > 100 µg/mL | 1.56 µg/mL | > 100 µg/mL | > 100 µg/mL | > 100 µg/mL | 
CN/C(=N/CCSCc1nc[nH]c1C)NC#N [cimetidine] |  |  |  |  |  |  |  |  | 80-90%
CC(C)Sc1ccc2c(=S)cc[nH]c2c1 [compound 49, 7-Isopropylthioquinoline-4(1H)-thione] | > 100 µg/mL | > 100 µg/mL | > 100 µg/mL | > 100 µg/mL | 0.39 µg/mL | > 100 µg/mL | > 100 µg/mL | > 100 µg/mL | 
S=c1cc[nH]c2cc(N3CCNCC3)ccc12 [compound 54, 7-(1-Piperazinyl)quinoline-4(1H)-thione] | > 100 µg/mL | > 100 µg/mL | 100 µg/mL (≈ 408 µM) | > 100 µg/mL | 3.13 µg/mL | > 100 µg/mL | > 100 µg/mL | > 100 µg/mL | 
S=c1cc[nH]c2c3c(ccc12)CCCC3 [compound 40, 7,8,9,10-Tetrahydrobenzo[h]quinoline-4(1H)-thione] | > 100 µg/mL | > 100 µg/mL | > 100 µg/mL | > 100 µg/mL | 0.2 µg/mL | > 100 µg/mL | > 100 µg/mL | > 100 µg/mL | 
CC(C)N(C)c1ccc2c(=S)cc[nH]c2c1 [compound 34, 7-(N-Isopropyl-N-methylamino)quinoline-4(1H)-thione] | > 100 µg/mL | > 100 µg/mL | > 100 µg/mL | > 100 µg/mL | 0.78 µg/mL | > 100 µg/mL | > 100 µg/mL | > 100 µg/mL | 

More lines, main results first:

MIC (K.pneumoniae PCI 602) | MIC (E.faecalis RIMD 3336001) | MIC (S.aureus FDA 209P) | MIC (B.subtilis PCI 219) | MIC [1] | MIC (E.coli NIHJ JC-2) | MIC (M.luteus ATCC 9341) | MIC (P.aeruginosa IFO 3445) | SMILES | cure rate (peptic ulcer)
> 100 µg/mL | > 100 µg/mL | 50 µg/mL (≈ 261 µM) | > 100 µg/mL | 0.39 µg/mL | > 100 µg/mL | > 100 µg/mL | > 100 µg/mL | COc1ccc2c(=S)cc[nH]c2c1 [compound 1, 7-Methoxyquinoline-4(1H)-thione] | 
> 100 µg/mL | > 100 µg/mL | > 100 µg/mL | > 100 µg/mL | 1.56 µg/mL | > 100 µg/mL | > 100 µg/mL | > 100 µg/mL | S=c1cc[nH]c2cc(CSc3nc4ccccc4[nH]3)ccc12 [compound 50, 7-(2-Benzimidazolyl)thiomethylquinoline-4(1H)-thione] | 
> 100 µg/mL | 50 µg/mL (≈ 244 µM) | 50 µg/mL (≈ 244 µM) | 100 µg/mL (≈ 487 µM) | 1.56 µg/mL | > 100 µg/mL | 100 µg/mL (≈ 487 µM) | > 100 µg/mL | COCc1ccc2c(=S)cc[nH]c2c1 [compound 16, 7-Methoxymethylquinoline-4(1H)-thione] | 
> 100 µg/mL | > 100 µg/mL | > 100 µg/mL | > 100 µg/mL | 0.78 µg/mL | > 100 µg/mL | > 100 µg/mL | > 100 µg/mL | S=c1cc[nH]c2cc(SCc3ccccc3)ccc12 [compound 37, 7-Benzylthioquinoline-4(1H)-thione] | 
> 100 µg/mL | > 100 µg/mL | > 100 µg/mL | > 100 µg/mL | 1.56 µg/mL | > 100 µg/mL | > 100 µg/mL | > 100 µg/mL | S=c1cc[nH]c2cc(COc3ccccc3)ccc12 [compound 6, 7-Phenoxymethylquinoline-4(1H)-thione] | 
